Results published in ChEMBL document CHEMBL1201862, “PubChem BioAssay data set” (2004).
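In this assay, cells in 96-well plates receive the compound at five concentrations for 48 hours. Endpoints are linearly interpolated between the surrounding concentrations. The concentration for 50% growth inhibition is given as GI50.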 Active and inactive are the calls of the source. Rule as the data show it: active = GI50 up to about 1.1 µM and inactive = higher.

Legend:
Assay in all cases: inhibition of tumour cell growth, NCI panel, 48 h
T47D = system: T47D
SNB-19 = system: SNB-19
HCC 2998 = system: HCC 2998
M14 = system: M14
OVCAR-4 = system: OVCAR-4
SK-MEL-28 = system: SK-MEL-28
SK-OV-3 = system: SK-OV-3
SW-620 = system: SW-620
KM12 = system: KM12
OVCAR-8 = system: OVCAR-8
RXF 393 = system: RXF 393
A549 = system: A549
MCF7 = system: MCF7
CAKI-1 = system: CAKI-1
SF-295 = system: SF-295
A498 = system: A498
HL-60 = system: HL-60
SF-268 = system: SF-268
HCT-15 = system: HCT-15
NCI-H23 = system: NCI-H23
786-0 = system: 786-0
SF-539 = system: SF-539
BT-549 = system: BT-549
SNB-75 = system: SNB-75
Hs-578T = system: Hs-578T
COLO 205 = system: COLO 205
SR = system: SR
SK-MEL-5 = system: SK-MEL-5
UACC-257 = system: UACC-257
MOLT-4 = system: MOLT-4
EKVX = system: EKVX
IGROV-1 = system: IGROV-1
HOP-92 = system: HOP-92
NCI/ADR-RES = system: NCI/ADR-RES
HCT-116 = system: HCT-116
DU-145 = system: DU-145
Malme-3M = system: Malme-3M
U-251 = system: U-251
UACC-62 = system: UACC-62
CCRF-CEM = system: CCRF-CEM
OVCAR-3 = system: OVCAR-3
MDA-MB-435 = system: MDA-MB-435
PC-3 = system: PC-3
HOP-62 = system: HOP-62
ACHN = system: ACHN
MDA-N = system: MDA-N
HT-29 = system: HT-29
RPMI-8226 = system: RPMI-8226
SN12C = system: SN12C
MDA-MB-231 = system: MDA-MB-231
NCI-H522 = system: NCI-H522
TK-10 = system: TK-10
SK-MEL-2 = system: SK-MEL-2
UO-31 = system: UO-31
NCI-H226 = system: NCI-H226
NCI-H460 = system: NCI-H460
OVCAR-5 = system: OVCAR-5
K562 = system: K562
LOX IMVI = system: LOX IMVI

CCN(CC)CCn1c2cc3c(cc2c(=O)c2cccnc21)OCCO3
GI50 (T47D): > 10 µM (inactive)
GI50 (SNB-19): > 10 µM (inactive)
GI50 (HCC 2998): 6.4 µM (inactive)
GI50 (M14): > 10 µM (inactive)
GI50 (OVCAR-4): > 10 µM (inactive)
GI50 (SK-MEL-28): > 10 µM (inactive)
GI50 (SK-OV-3): > 10 µM (inactive)
GI50 (SW-620): 5.28 µM (inactive)
GI50 (KM12): > 10 µM (inactive)
GI50 (OVCAR-8): > 10 µM (inactive)
GI50 (RXF 393): > 10 µM (inactive)
GI50 (A549): > 10 µM (inactive)
GI50 (MCF7): 7.82 µM (inactive)
GI50 (CAKI-1): > 10 µM (inactive)
GI50 (SF-295): > 10 µM (inactive)
GI50 (A498): 0.0912 µM (active)
GI50 (HL-60): > 10 µM (inactive)
GI50 (SF-268): > 10 µM (inactive)
GI50 (HCT-15): > 10 µM
GI50 (NCI-H23): > 10 µM (inactive)
GI50 (786-0): > 10 µM (inactive)
GI50 (SF-539): > 10 µM (inactive)
GI50 (BT-549): > 10 µM (inactive)
GI50 (SNB-75): > 10 µM (inactive)
GI50 (Hs-578T): > 10 µM (inactive)
GI50 (COLO 205): > 10 µM (inactive)
GI50 (SR): 4.44 µM (inactive)
GI50 (SK-MEL-5): > 10 µM (inactive)
GI50 (UACC-257): > 10 µM (inactive)
GI50 (MOLT-4): 3.78 µM (inactive)
GI50 (EKVX): > 10 µM (inactive)
GI50 (IGROV-1): > 10 µM (inactive)
GI50 (HOP-92): > 10 µM (inactive)
GI50 (NCI/ADR-RES): > 10 µM (inactive)
GI50 (HCT-116): 4.72 µM (inactive)
GI50 (DU-145): > 10 µM (inactive)
GI50 (Malme-3M): > 10 µM (inactive)
GI50 (U-251): > 10 µM (inactive)
GI50 (UACC-62): > 10 µM (inactive)
GI50 (CCRF-CEM): 5.46 µM (inactive)
GI50 (OVCAR-3): > 10 µM (inactive)
GI50 (MDA-MB-435): > 10 µM (inactive)
GI50 (PC-3): > 10 µM (inactive)
GI50 (HOP-62): > 10 µM (inactive)
GI50 (ACHN): 4.99 µM (inactive)
GI50 (MDA-N): > 10 µM (inactive)
GI50 (HT-29): > 10 µM (inactive)
GI50 (RPMI-8226): > 10 µM (inactive)
GI50 (SN12C): 9.71 µM (inactive)
GI50 (MDA-MB-231): 9.51 µM (inactive)
GI50 (NCI-H522): > 10 µM (inactive)
GI50 (TK-10): > 10 µM (inactive)

FC(F)(F)c1cccnc1Sc1nc2ccccc2s1
GI50 (T47D): > 100 µM (inactive)
GI50 (SNB-19): > 100 µM (inactive)
GI50 (HCC 2998): > 100 µM (inactive)
GI50 (M14): 37.6 µM (inactive)
GI50 (OVCAR-4): > 100 µM (inactive)
GI50 (SK-MEL-28): > 100 µM (inactive)
GI50 (SW-620): > 100 µM (inactive)
GI50 (KM12): > 100 µM (inactive)
GI50 (OVCAR-8): > 100 µM (inactive)
GI50 (RXF 393): > 100 µM (inactive)
GI50 (A549): > 100 µM (inactive)
GI50 (MCF7): > 100 µM (inactive)
GI50 (CAKI-1): > 100 µM (inactive)
GI50 (SK-MEL-2): 20.7 µM (inactive)
GI50 (SF-295): 63 µM (inactive)
GI50 (A498): > 100 µM (inactive)
GI50 (UO-31): 32.1 µM (inactive)
GI50 (SF-268): > 100 µM (inactive)
GI50 (HCT-15): > 100 µM
GI50 (NCI-H23): 80.4 µM (inactive)
GI50 (786-0): > 100 µM (inactive)
GI50 (SF-539): > 100 µM (inactive)
GI50 (BT-549): > 100 µM (inactive)
GI50 (SNB-75): 59.6 µM (inactive)
GI50 (Hs-578T): 45.7 µM (inactive)
GI50 (NCI-H226): 2.67 µM (inactive)
GI50 (COLO 205): > 100 µM (inactive)
GI50 (SR): 30.9 µM (inactive)
GI50 (SK-MEL-5): > 100 µM (inactive)
GI50 (UACC-257): > 100 µM (inactive)
GI50 (NCI-H460): > 100 µM (inactive)
GI50 (MOLT-4): 52.1 µM (inactive)
GI50 (EKVX): 63 µM (inactive)
GI50 (IGROV-1): 42.4 µM (inactive)
GI50 (HOP-92): 16.3 µM (inactive)
GI50 (NCI/ADR-RES): > 100 µM (inactive)
GI50 (OVCAR-5): 34.1 µM (inactive)
GI50 (HCT-116): > 100 µM (inactive)
GI50 (DU-145): > 100 µM (inactive)
GI50 (Malme-3M): > 100 µM (inactive)
GI50 (U-251): > 100 µM (inactive)
GI50 (UACC-62): > 100 µM (inactive)
GI50 (CCRF-CEM): > 100 µM (inactive)
GI50 (OVCAR-3): 11.3 µM (inactive)
GI50 (MDA-MB-435): > 100 µM (inactive)
GI50 (PC-3): > 100 µM (inactive)
GI50 (HOP-62): 57.8 µM (inactive)
GI50 (ACHN): > 100 µM (inactive)
GI50 (K562): > 100 µM (inactive)
GI50 (MDA-N): > 100 µM (inactive)
GI50 (HT-29): > 100 µM (inactive)
GI50 (RPMI-8226): 45.8 µM (inactive)
GI50 (SN12C): > 100 µM (inactive)
GI50 (MDA-MB-231): 63.8 µM (inactive)
GI50 (NCI-H522): 80 µM (inactive)
GI50 (TK-10): > 100 µM (inactive)

Cc1ncc([N+](=O)[O-])n1CCNC(=O)CCC(=O)NCCCn1ccnc1[N+](=O)[O-]
GI50 (T47D): > 100 µM (inactive)
GI50 (M14): > 100 µM (inactive)
GI50 (OVCAR-4): > 100 µM (inactive)
GI50 (SK-MEL-28): > 100 µM (inactive)
GI50 (SK-OV-3): > 100 µM (inactive)
GI50 (SW-620): > 100 µM (inactive)
GI50 (KM12): > 100 µM (inactive)
GI50 (OVCAR-8): > 100 µM (inactive)
GI50 (RXF 393): > 100 µM (inactive)
GI50 (A549): > 100 µM (inactive)
GI50 (MCF7): > 100 µM (inactive)
GI50 (CAKI-1): > 100 µM (inactive)
GI50 (SK-MEL-2): > 100 µM (inactive)
GI50 (SF-295): > 100 µM (inactive)
GI50 (A498): > 100 µM (inactive)
GI50 (HL-60): > 100 µM (inactive)
GI50 (UO-31): > 100 µM (inactive)
GI50 (SF-268): > 100 µM (inactive)
GI50 (HCT-15): > 100 µM
GI50 (NCI-H23): > 100 µM (inactive)
GI50 (786-0): > 100 µM (inactive)
GI50 (SF-539): > 100 µM (inactive)
GI50 (BT-549): > 100 µM (inactive)
GI50 (SNB-75): > 100 µM (inactive)
GI50 (Hs-578T): > 100 µM (inactive)
GI50 (NCI-H226): > 100 µM (inactive)
GI50 (COLO 205): > 100 µM (inactive)
GI50 (SR): > 100 µM (inactive)
GI50 (LOX IMVI): > 100 µM (inactive)
GI50 (SK-MEL-5): > 100 µM (inactive)
GI50 (UACC-257): > 100 µM (inactive)
GI50 (NCI-H460): > 100 µM (inactive)
GI50 (MOLT-4): > 100 µM (inactive)
GI50 (EKVX): > 100 µM (inactive)
GI50 (IGROV-1): > 100 µM (inactive)
GI50 (HOP-92): 54 µM (inactive)
GI50 (NCI/ADR-RES): > 100 µM (inactive)
GI50 (OVCAR-5): > 100 µM (inactive)
GI50 (HCT-116): > 100 µM (inactive)
GI50 (DU-145): > 100 µM (inactive)
GI50 (Malme-3M): > 100 µM (inactive)
GI50 (U-251): > 100 µM (inactive)
GI50 (UACC-62): > 100 µM (inactive)
GI50 (CCRF-CEM): > 100 µM (inactive)
GI50 (OVCAR-3): > 100 µM (inactive)
GI50 (MDA-MB-435): > 100 µM (inactive)
GI50 (PC-3): > 100 µM (inactive)
GI50 (HOP-62): > 100 µM (inactive)
GI50 (ACHN): > 100 µM (inactive)
GI50 (K562): > 100 µM (inactive)
GI50 (MDA-N): > 100 µM (inactive)
GI50 (HT-29): > 100 µM (inactive)
GI50 (RPMI-8226): > 100 µM (inactive)
GI50 (SN12C): > 100 µM (inactive)
GI50 (MDA-MB-231): > 100 µM (inactive)
GI50 (NCI-H522): > 100 µM (inactive)
GI50 (TK-10): > 100 µM (inactive)
